Results on three molecules are retold here after patent publication EP0043274A2, “Antithrombotic treatment” (priority 1980, dated 1982).

One series relates to platelet rich plasma. Put plainly: Platelet aggregation in platelet rich plasma, ADP stimulus (Example 25). The class given is cell-based. As to conditions: plasma first treated with the compound. From the text: Plasma was centrifuged at 1000 r.p.m. (200 g) to prepare a platelet rich plasma. Using adosine diphosphate (ADP) as a stimulous, rapid aggregation of platelets in the plasma was efected. On the other hand, when such plasma is first treatd with (a) tetramethyl ammonium sulfite, (b) tetramethyl ammonium bisulfite, and then (c) tetrabutyl

Series [1] addresses T1, FIBRINOGEN (Homo sapiens, UniProt P02671+P02675+P02679).
T1 construct: from tissue; host or cells: human plasma
T1 sequence (P02671 20-629 limits assumed): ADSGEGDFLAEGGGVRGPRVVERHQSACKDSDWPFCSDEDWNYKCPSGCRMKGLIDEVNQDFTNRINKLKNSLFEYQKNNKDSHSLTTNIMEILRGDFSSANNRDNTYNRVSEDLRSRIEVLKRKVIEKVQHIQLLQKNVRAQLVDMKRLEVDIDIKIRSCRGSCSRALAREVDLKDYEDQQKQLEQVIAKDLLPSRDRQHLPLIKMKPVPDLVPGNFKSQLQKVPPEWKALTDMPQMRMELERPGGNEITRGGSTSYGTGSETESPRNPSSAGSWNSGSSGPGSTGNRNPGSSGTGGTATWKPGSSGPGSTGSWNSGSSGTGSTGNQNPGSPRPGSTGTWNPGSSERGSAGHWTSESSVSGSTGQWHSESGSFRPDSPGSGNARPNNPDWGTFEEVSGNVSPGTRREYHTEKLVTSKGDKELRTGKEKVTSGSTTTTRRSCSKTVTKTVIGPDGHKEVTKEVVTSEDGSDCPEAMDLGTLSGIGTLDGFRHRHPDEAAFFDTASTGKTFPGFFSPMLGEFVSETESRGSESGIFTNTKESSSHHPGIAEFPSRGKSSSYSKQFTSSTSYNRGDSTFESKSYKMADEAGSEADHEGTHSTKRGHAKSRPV
T1 sequence (P02675 31-491): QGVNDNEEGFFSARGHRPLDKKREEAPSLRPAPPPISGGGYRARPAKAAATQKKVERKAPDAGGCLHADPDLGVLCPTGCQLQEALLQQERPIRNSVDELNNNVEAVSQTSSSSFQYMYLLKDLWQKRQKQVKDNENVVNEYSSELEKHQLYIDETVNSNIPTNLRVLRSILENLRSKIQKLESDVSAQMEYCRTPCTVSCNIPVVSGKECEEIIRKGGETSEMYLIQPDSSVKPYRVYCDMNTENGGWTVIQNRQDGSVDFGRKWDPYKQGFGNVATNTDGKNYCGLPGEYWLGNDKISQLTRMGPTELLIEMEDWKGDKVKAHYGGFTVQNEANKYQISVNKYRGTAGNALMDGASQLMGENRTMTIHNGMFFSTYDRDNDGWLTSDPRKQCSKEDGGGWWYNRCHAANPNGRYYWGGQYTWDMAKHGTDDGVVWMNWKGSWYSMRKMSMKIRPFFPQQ
T1 sequence (P02679 27-453): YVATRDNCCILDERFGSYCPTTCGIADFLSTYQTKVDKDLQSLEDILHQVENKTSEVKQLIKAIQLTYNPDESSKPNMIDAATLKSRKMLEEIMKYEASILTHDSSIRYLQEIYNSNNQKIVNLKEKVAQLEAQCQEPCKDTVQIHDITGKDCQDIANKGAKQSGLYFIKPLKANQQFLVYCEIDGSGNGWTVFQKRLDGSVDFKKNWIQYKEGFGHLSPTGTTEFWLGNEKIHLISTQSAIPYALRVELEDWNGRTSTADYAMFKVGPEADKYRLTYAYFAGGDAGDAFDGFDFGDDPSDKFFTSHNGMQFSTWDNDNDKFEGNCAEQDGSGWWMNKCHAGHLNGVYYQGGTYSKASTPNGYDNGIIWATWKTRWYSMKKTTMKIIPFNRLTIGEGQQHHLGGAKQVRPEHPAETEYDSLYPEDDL
The series can be described thus: Coagulation factor assay (Biggs): fibrinogen. It is filed as biochemical. As to conditions: mean of 2 experiments; control 205.

Series [2] relates to platelet thrombus formation on damaged aortic wall. The series can be described thus: Indium 111 platelet labeling technique in rabbits (platelet accumulation at vessel wall). It is filed as in vivo. On the procedure: In medicine, for example, arterial thrombosis is diagnosable by clinical manifestations, by arteriography, and recently, by an Indium 111 platelet labeling technique (see, for example, the article entitled "Differential , Effects of Two Doses of Aspirin on Platelet-Vessel Wall Interaction In Vivo" by K.K. Wu et al being published in the Journal of Clinical Investigtion, August, 1981).
Sodium bisulfite is evaluated under in vivo conditions as an antithrombotic agent using the anti-indium 111 platelet labeling technique in rabbits (see the Wu et al article above cited). The material was administered by intravenous injection (72.80 milligram per kilogram of animal body weight). […]

Series [3] has as its target T1, FIBRINOGEN
The series can be described thus: Coagulation factor assay (Biggs): fibrinogen. The class given is biochemical. As to conditions: for FIBRINOGEN (mg%): U.S.P. grade, control 218. On the procedure:
(§1) The effect of U.S.P. grade sodium bisulfite on blood coagulation factors is evaluated by standard procedures (Biggs) and the results are shown in Table III below.
(§2) References for PT, PTT, and assays of all the coagulation factors can be found in a standard textbook, entitled "Human Blood Coagulation, Haemostasis and Thrombosis", edited by Rosemary Biggs, published by Blackwell Scientific Publications, Oxford, England (2nd edition), pages 670-705, 1976.

For another series, the target named is T2, PROTHROMBIN (Homo sapiens, UniProt P00734).
T2 construct: from tissue; host or cells: human plasma
The series can be described thus: Coagulation factor assay (Biggs): prothrombin (Factor II). It is filed as biochemical. The conditions noted are these: for PROTHROMBIN (%): U.S.P. grade, control 87. On the procedure:
as §1, §2

For another series, the target named is T3, F VIII (Homo sapiens, UniProt P00451).
T3 construct: from tissue; host or cells: human plasma
T3 sequence (P00451 20-2351): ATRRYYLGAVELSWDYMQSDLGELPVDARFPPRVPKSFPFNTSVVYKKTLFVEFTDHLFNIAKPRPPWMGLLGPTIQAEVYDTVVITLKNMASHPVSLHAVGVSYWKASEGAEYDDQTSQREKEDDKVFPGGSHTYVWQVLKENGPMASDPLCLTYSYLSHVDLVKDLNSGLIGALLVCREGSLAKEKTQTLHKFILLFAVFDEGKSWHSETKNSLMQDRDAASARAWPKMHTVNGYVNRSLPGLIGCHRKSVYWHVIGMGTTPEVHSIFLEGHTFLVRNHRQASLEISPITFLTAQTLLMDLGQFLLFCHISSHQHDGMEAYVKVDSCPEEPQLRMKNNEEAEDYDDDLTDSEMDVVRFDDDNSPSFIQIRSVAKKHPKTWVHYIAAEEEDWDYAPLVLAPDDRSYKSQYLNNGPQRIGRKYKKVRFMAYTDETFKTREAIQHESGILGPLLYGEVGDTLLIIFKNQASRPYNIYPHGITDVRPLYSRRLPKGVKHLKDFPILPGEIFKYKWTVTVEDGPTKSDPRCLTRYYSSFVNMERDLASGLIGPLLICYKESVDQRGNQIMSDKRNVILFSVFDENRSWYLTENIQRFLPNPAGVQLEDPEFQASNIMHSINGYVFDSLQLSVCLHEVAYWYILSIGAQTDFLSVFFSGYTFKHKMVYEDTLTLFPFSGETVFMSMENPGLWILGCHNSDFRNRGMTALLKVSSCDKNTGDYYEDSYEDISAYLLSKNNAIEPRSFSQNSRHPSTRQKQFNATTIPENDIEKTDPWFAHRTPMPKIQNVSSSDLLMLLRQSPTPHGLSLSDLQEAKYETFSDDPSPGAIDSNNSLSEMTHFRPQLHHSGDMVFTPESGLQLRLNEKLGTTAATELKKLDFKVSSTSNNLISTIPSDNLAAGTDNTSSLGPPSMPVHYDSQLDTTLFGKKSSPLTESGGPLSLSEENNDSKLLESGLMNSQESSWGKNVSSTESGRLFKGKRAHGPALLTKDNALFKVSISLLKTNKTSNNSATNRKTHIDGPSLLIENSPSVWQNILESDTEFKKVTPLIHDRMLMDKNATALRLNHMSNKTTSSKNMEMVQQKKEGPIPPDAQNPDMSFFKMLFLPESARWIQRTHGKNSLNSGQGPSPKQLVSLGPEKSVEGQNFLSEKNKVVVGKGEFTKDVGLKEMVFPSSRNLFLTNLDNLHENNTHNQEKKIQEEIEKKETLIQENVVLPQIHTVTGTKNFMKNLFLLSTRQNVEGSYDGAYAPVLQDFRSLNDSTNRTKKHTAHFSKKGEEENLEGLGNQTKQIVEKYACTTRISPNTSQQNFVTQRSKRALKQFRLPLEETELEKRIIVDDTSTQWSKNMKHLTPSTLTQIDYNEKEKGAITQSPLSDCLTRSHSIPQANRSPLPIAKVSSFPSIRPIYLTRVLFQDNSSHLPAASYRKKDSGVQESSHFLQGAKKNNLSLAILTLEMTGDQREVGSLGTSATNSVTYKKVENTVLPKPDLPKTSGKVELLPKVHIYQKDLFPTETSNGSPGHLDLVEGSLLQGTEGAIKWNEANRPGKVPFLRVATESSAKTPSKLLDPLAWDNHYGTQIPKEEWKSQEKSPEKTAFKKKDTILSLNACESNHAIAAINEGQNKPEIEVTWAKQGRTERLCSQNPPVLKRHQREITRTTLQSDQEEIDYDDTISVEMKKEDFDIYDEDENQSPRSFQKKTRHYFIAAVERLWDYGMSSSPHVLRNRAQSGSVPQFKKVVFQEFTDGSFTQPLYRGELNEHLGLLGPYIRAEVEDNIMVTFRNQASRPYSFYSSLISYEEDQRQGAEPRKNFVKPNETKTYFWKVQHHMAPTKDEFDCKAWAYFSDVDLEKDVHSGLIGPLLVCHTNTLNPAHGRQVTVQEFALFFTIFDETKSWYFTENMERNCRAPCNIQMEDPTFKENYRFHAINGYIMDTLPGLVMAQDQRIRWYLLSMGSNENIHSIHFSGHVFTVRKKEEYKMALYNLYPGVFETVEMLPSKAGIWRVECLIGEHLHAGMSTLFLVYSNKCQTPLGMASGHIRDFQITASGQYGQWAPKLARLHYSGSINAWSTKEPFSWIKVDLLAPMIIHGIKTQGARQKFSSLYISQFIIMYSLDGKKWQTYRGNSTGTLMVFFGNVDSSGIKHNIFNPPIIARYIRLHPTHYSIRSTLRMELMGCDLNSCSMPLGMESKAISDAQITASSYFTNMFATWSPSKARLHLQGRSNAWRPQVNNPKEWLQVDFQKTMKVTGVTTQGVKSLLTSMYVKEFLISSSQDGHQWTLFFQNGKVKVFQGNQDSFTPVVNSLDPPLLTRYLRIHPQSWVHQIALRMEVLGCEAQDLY
The series can be described thus: Coagulation factor assay (Biggs): Factor VIII. The conditions noted are these: for F VIII (%): U.S.P. grade, control 57. The class given is biochemical. On the procedure: as §1, §2

For another series, the system named is rat plasma. The series can be described thus: Blood coagulation tests (PT, PTT, coagulation factors) in vitro. The class given is biochemical. From the text:
The alkali metalbisulfites, sodium and potassium, and ammonium bisulfite are found to prolong PT and PTT in a dose-related fashion.

A further series concerns blood. Put plainly: Storage of blood samples with added sodium bisulfite solution. Set-up: species or system human. As to conditions: about 4 cc blood + about 10 drops of 10 weight percent solution; about 2 1/2 years at ambient temperatures. On the procedure: Samples of about 4 cc each of blood were prepared. To each of these was added about 10 drops of a solution 10 weight percent and sodium bisulfite in distilled water. Each sample was then sealed into a glass vial.

Several values for one entry are separate records, joined by “and”; a condition that tells them apart may be missing. Equal values may be shown once.

In the case of `C[N+](C)(C)C` [Tetramethyl-ammonium bisulfite], the “platelet aggregation, adosine diphosphate (ADP) as a stimulous” value in the series on platelet rich plasma is given as “inhibited”. For the same molecule, the “Fibrinogen (%)” value at FIBRINOGEN [1] worked out at 170%.

As for Sodium bisulfite, the “reduces accumulation of platelet thrombus at the damaged vessel wall” value in series [2] (intravenous injection 72.80 milligram per kilogram) is given as “The findings indicate that the active agent reduces accumulation of platelet thrombus at the damaged vessel wall by 70%”. Also, in series [2] (intravenous injection 72.80 milligram per kilogram, rabbits A and B, control 0.03± 0.02), the “Platelet Accumulation II. at normal vessel wall %” value was 0.08%. The “Platelet Accumulation II. at normal vessel wall cpm/gm” value in series [2] (intravenous injection 72.80 milligram per kilogram, rabbits A and B, control 72,140± 39,040) is 98,611 cpm/gm and 83,066 cpm/gm. Besides, in series [2] (intravenous injection 72.80 milligram per kilogram, rabbits A and B, count per minute per gram dry weight of tissue, control 1,167,820± 21,310), the “Platelet Accumulation I. at damaged vessel wall cpm/gm” value was 133,986 cpm/gm and 146,630 cpm/gm. Besides, the “Platelet Accumulation I. at damaged vessel wall %” value in series [2] (intravenous injection 72.80 milligram per kilogram, rabbits A and B, percentage of injected radioactivity per gram dry weight of tissue, control 0.44± 0.08) is 0.11% and 0.15%. The “FIBRINOGEN (mg%)” value on FIBRINOGEN [3] (0.01 mg/ml) is 222 mg%; at FIBRINOGEN [3] (0.05 mg/ml), 228 mg%; at FIBRINOGEN [3] (0.1 mg/ml) it was 217 mg%; on FIBRINOGEN [3] (0.5 mg/ml) it was 190 mg%; at FIBRINOGEN [3] (1.0 mg/ml), 185 mg%; at FIBRINOGEN [3] (5.0 mg/ml) it was 130 mg%. The “effect on Factor II” value at PROTHROMBIN is reported as “mildly affected”. The “PROTHROMBIN (%)” value on PROTHROMBIN (0.01 mg/ml) is given as 79%; on PROTHROMBIN (0.05 mg/ml), 80%; on PROTHROMBIN (0.1 mg/ml), 72%; at PROTHROMBIN (0.5 mg/ml) it was 40%; at PROTHROMBIN (1.0 mg/ml), 26%; on PROTHROMBIN (5.0 mg/ml), 5%. At F VIII, the “effect on Factor VIII” value is recorded as “mildly affected”. For the same molecule, the “F VIII (%)” value on F VIII (0.01 mg/ml) is reported as 62%; on F VIII (0.05 mg/ml), 68%; at F VIII (0.1 mg/ml), 55%; at F VIII (0.5 mg/ml), 58%; at F VIII (1.0 mg/ml), 29%; at F VIII (5.0 mg/ml) it was 11%. The “PT and PTT (effect in words)” value with rat plasma (rat plasma in vitro, 0.5 mg/ml) is given as “significantly prolong”. In addition, the “blood coagulation factors” value with rat plasma (rat plasma, compared with human plasma) is on record as “not as sensitive”. In addition, in the series with blood, the “coagulation of stored blood samples” value is given as “have not coagulated”.

As to `CCN(CC)CC.O=S(O)O` [TRIETHYL AMINE BISULFITE, triethyl amine bisulfite], in series [2] (intervenous injection 127.39 mg/kg), the “mortality of another rabbit so tested” value was “died”. Besides, in series [2] (intervenous injection 127.39 mg/kg, equivalent to 0.01 molar concentrations in blood), the “reduction in accumulation of platelet thrombus” value was “about 30%”. In addition, at FIBRINOGEN [3] (mean of two experiments, control 205), the “Fibrinogen (%)” value turned out to be 125%.
